Read-outs that look alike come from different tables or passages of the source.

The test system of data set [1] is Propionic Acidemia (PA) primary fibroblasts GM00371. In words: Mitochondrial respiration, XFe96 Extracellular Flux Analyzer (OCR/ECAR), PA fibroblasts GM00371. The conditions noted are these: Homo sapiens, Fibroblast. It is filed as cell-based.
Data set [2] concerns monocyte-derived M1 macrophages. In words: M1 differentiation assay (macrophage TNFα, IL6, IL10 ELISA, FACS). It is filed as cell-based, human. The following applies: for inhibition at 10 µM: read-out: % decrease in Macrophage TNFα Secretion. Summed up: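 CD14+ human blood monocytes (100,000) differentiated 6 days with 10 ng/ml GM-CSF plus compound at 10 or 50 μM, refreshed days 2 and 4. Matured 24 h with GM-CSF, IFNγ, LPS plus compound. Supernatant TNFα, IL6, IL10 by ELISA; FACS M1 phenotype CD86+CD68+CD163−.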

For data set [3], the system named is Methylmalonic Acidemia (MMA) primary fibroblasts Tsi 5224. In words: Mitochondrial respiration, XFe96 Extracellular Flux Analyzer (OCR/ECAR), MMA fibroblasts Tsi 5224.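 On Increase in Maximal Respiratory Capacity AUC: relative to vehicle DMSO control.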 Format: cell-based. The conditions noted are these: Homo sapiens, Fibroblast. Summed up: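 Primary fibroblasts (20000 cells/well) were held 24 h in supplemented DMEM before Seahorse OCR/ECAR profiling. Compounds at 10 to 50 μM or 0.1% DMSO were injected after baseline, then oligomycin 1 μg/ml, FCCP, and rotenone/antimycin A 0.5 μM. Values were normalized to Hoechst nuclear counts, baselined to pre-compound, and expressed relative to vehicle.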

In data set [4] the test system is Peripheral blood mononuclear cells co-cultured with B-cells (BT system).
The test system of data set [5] is Venular Endothelial cells (HUVEC) (4H system). Put plainly: BioMAP 4H system (IL-4 and histamine). It is filed as cell-based, human. The following applies: procedure of Example 826; for inhibition at 1 µM / inhibition at 10 µM: Homo sapiens, HUVEC, 24 h.
Setting [6] is: assay condition A (10 mM glucose, 2 mM L-glutamine, 1 mM pyruvate, 10% FBS), read-out: Increase in Maximal Respiratory Capacity AUC.
Where [7] appears, read: assay condition C (10 mM glucose, 10% FBS), read-out: Increase in Maximal Respiratory Capacity AUC.
Setting [8] is: assay condition D (1 mM glucose, 10% FBS), read-out: Increase in Maximal Respiratory Capacity AUC.
[9] abbreviates: Homo sapiens, Macrophage, 10 uM.
Setting [10] is: MMA Tsi 5224, assay condition D (1 mM glucose, 10% FBS), read-out: Increase in Maximal Respiratory Capacity AUC.
[11] abbreviates: assay condition A (10 mM glucose, 2 mM L-glutamine, 1 mM pyruvate, 10% FBS), read-out: Increase in Spare Capacity AUC.
The mark [12] stands for this setting: MMA Tsi 5224, assay condition A (10 mM glucose, 2 mM L-glutamine, 1 mM pyruvate, 10% FBS), read-out: Increase in Maximal Respiratory Capacity AUC.
Where [13] appears, read: assay condition D (1 mM glucose, 10% FBS), read-out: Increase in Spare Capacity AUC.
The mark [14] stands for this setting: 10 uM, procedure of Example 829.
[15] abbreviates: 1 uM, read-out: % decrease in VEGFRII.
[16] abbreviates: 10 uM, read-out: % decrease in E-Selectin.
[17] abbreviates: 10 uM, read-out: % decrease in VEGFRII.

`CC(C)(CO)[C@@H](O)C(=O)NCCC(=O)NCCSC(=O)CCCN` [Compound 370, (2R)—N-[2-([2-[(4-aminobutanoyl)sulfanyl]ethyl]carbamoyl)ethyl]-2,4-dihydroxy-3,3-dimethylbutanamide]: the activation at 10 µM in data set [1] (setting [6]) and in data set [1] (setting [8]) was no less than 10% throughout. In addition, the activation at 50 µM in data set [1] (setting [7]) was no less than 10%.

Consider `COC(=O)CC[C@H](N)C(=O)SCCNC(=O)CCNC(=O)[C@H](O)C(C)(C)CO` [Compound 411], for which the “% decrease in Live Macrophage Cells” value in data set [2] (50 uM) is no less than 20%. The inhibition at 10 µM in data set [2] (setting [9]) was no less than 30%. The activation at 10 µM in data set [3] (setting [10]) was no less than 10%; in data set [3] (MMA Tsi 5224, assay condition D (1 mM glucose, 10% FBS), read-out: Increase in Spare Capacity AUC), no less than 10%; in data set [1] (setting [11]), no less than 30%.

Turning to `CC(C)(CO)[C@@H](O)C(=O)NCCC(=O)NCCSC(=O)CCC(=O)O` [Compound 1, (R)-4-((2-(3-(2,4-dihydroxy-3,3-dimethylbutanamido)propanamido)ethyl)thio)-4-oxobutanoic acid], the activation at 10 µM in data set [3] (setting [12]) is no less than 10%; in data set [3] (MMA Tsi 5224, assay condition B (1 mM glucose, 2 mM L-glutamine, 1 mM pyruvate, 10% FBS), read-out: Increase in Maximal Respiratory Capacity AUC) it was no less than 10%; in data set [1] (setting [13]), no less than 10%. In addition, the activation at 50 µM in data set [1] (setting [7]) is no less than 10%.

Turning to `CC(C)(CO)[C@@H](O)C(=O)NCCC(=O)NCCSC(CC(=O)OCC[N+](C)(C)C)C(=O)O` (stereo partly drawn) [Compound 51, [2-([3-carboxy-3-[(2-[3-[(2R)-2,4-dihydroxy-3,3-dimethylbutanamido]propanamido]ethyl)sulfanyl]propanoyl]oxy)ethyl]trimethylazanium], the activation at 50 µM in data set [1] (setting [7]) was no less than 10%.

Regarding `CCC(=O)CC(=O)SCCNC(=O)CCNC(=O)[C@H](O)C(C)(C)CO` [Compound 382, (2R)-2,4-dihydroxy-3,3-dimethyl-N-[2-([2-[(3-oxopentanoyl)sulfanyl]ethyl]carbamoyl)ethyl]butanamide], the activation at 10 µM in data set [3] (setting [12]) and in data set [1] (setting [8]) was no less than 10% each time.

`COC(=O)CCC(=O)SCCNC(=O)CCNC(=O)[C@H](OC(=O)CNC(C)=O)C(C)(C)CO` [Compound 1298, methyl 4-[(2-[3-[(2R)-2-[(2-acetamidoacetyl)oxy]-4-hydroxy-3,3-dimethylbutanamido]propanamido]ethyl)sulfanyl]-4-oxobutanoate]: in data set [4] (1 uM, procedure of Example 829), the “% increase in B-cell Proliferation” value is listed as no less than 10% and the “% increase in sIL-17” value is reported as no less than 20%. Besides, in data set [4] (setting [14]), the “% decrease in sTNFα” value is on record as no less than 10%. In data set [1] (setting [11]), the activation at 10 µM was no less than 30% and the activation at 50 µM was no less than 50%. The activation at 10 µM in data set [1] (setting [13]) was no less than 30%. The activation at 50 µM in data set [1] (setting [8]) is no less than 10%. Moreover, in data set [5] (1 uM), the “% decrease in Eotaxin-3” value was no less than 10% and the “% decrease in MCP-1” value is no less than 10%. The inhibition at 1 µM in data set [5] (setting [15]) was no less than 10%.

In the case of `CC(O)C(C(=O)SCCNC(=O)CCNC(=O)[C@H](O)C(C)(C)CO)C(C)O` (stereo partly drawn) [Compound 1285, (2R)-2,4-dihydroxy-N-[2-[(2-[[3-hydroxy-2-(1-hydroxyethyl)butanoyl]sulfanyl]ethyl)carbamoyl]ethyl]-3,3-dimethylbutanamide], the activation at 50 µM in data set [1] (setting [7]) is no less than 10%.

For `C[C@@H](O)CC(=O)CC(=O)SCCNC(=O)CCNC(=O)[C@H](O)C(C)(C)CO` [Compound 42, (2R)-2,4-dihydroxy-N-[2-[(2-[[(5R)-5-hydroxy-3-oxohexanoyl]sulfanyl]ethyl)carbamoyl]ethyl]-3,3-dimethylbutanamide], in data set [4] (setting [14]), the “% increase in sIL-2” value was no less than 10% and the “% increase in sTNFα” value is on record as no less than 10%. Moreover, in data set [3] (setting [12]), the activation at 10 µM is no less than 10%. In addition, the “% decrease in Eotaxin-3” value in data set [5] (1 uM) was no less than 10%. Further, in data set [5] (10 uM), the “% increase in MCP-1” value was no less than 10% and the “% increase in VEGRII” value is no less than 10%. In addition, the inhibition at 10 µM in data set [5] (setting [16]) is no less than 10%.

Regarding `COC(=O)CC(C(C)=O)C(=O)SCCNC(=O)CCNC(=O)[C@H](O)C(C)(C)CO` (some centres unmarked) [Compound 410], the activation at 10 µM in data set [3] (setting [10]) was no less than 10%. In data set [1] (setting [8]), the activation at 50 µM is no less than 10%.

For the molecule `CC(C)(CO)[C@@H](O)C(=O)NCCC(=O)NCCSC(=O)[C@@H](N)Cc1ccc(O)c(O)c1` [Compound 371, (2R)—N-[2-[(2-[[(2S)-2-amino-3-(3,4-dihydroxyphenyl)propanoyl]sulfanyl]ethyl)carbamoyl]ethyl]-2,4-dihydroxy-3,3-dimethylbutanamide], the “% increase in sIL-2” value in data set [4] (1 uM, procedure of Example 829) is recorded as no less than 20%. In data set [4] (human, 72 h, 10 µM), the “% increase in PBMC cytotoxicity” value is reported as no less than 10%. The inhibition at 10 µM in data set [5] (setting [17]) was no less than 10%.

Regarding `CC(C)(COC(=O)OCC[N+](C)(C)C)[C@@H](O)C(=O)NCCC(=O)NCCSC(=O)CCC(=O)O` [Compound 116, [2-([[(3R)-3-[[2-([2-[(3-carboxypropanoyl)sulfanyl]ethyl]carbamoyl)ethyl]carbamoyl]-3-hydroxy-2,2-dimethylpropoxy]carbonyl]oxy)ethyl]trimethylazanium], the “% decrease in B-cell proliferation” value in data set [4] (1 uM, procedure of Example 829) was no less than 10%. In data set [4] (setting [14]), the “% decrease in sTNFα” value is listed as no less than 10%.

As for `COC(=O)CCC(=O)SCCNC(=O)CCNC(=O)[C@H](O)C(C)(C)COC(C)=O` [Compound 138], in data set [4] (1 uM, procedure of Example 829), the “% decrease in sIL-2” value is reported as no less than 10% and the “% decrease in sTNFα” value is on record as no less than 20%. The inhibition at 1 µM in data set [5] (setting [15]) was no less than 20%.

For `CC(=O)SCCNC(=O)CCNC(=O)[C@H](O)C(C)(C)COC(=O)[C@H](C)N` [Compound 502, (3R)-3-[(2-[[2-(acetylsulfanyl)ethyl]carbamoyl]ethyl)carbamoyl]-3-hydroxy-2,2-dimethylpropyl (2S)-2-aminopropanoate], in data set [1] (setting [6]), the activation at 10 µM was no less than 30% and the activation at 50 µM is no less than 10%. For the same molecule, the inhibition at 10 µM in data set [5] (setting [17]) was no less than 10%.

`COC(=O)CC(SCCNC(=O)CCNC(=O)[C@H](O)C(C)(C)COC(C)=O)C(=O)OC` (stereo partly drawn) [Compound 149, 1,4-dimethyl 2-[(2-[3-[(2R)-4-(acetyloxy)-2-hydroxy-3,3-dimethylbutanamido]propanamido]ethyl)sulfanyl]butanedioate]: in data set [4] (setting [14]), the “% increase in sIL-2” value is given as no less than 20% and the “% increase in sTNFα” value is reported as no less than 10%. Moreover, the “% increase in VEGRII” value in data set [5] (10 uM) is recorded as no less than 10%. Further, the inhibition at 10 µM in data set [5] (setting [16]) was no less than 10%.

On to `CC(=O)OCC(C)(C)[C@@H](OC(C)=O)C(=O)NCCC(=O)NCCSC(C)=O` [Compound 1264, (1R)-3-(acetyloxy)-1-[(2-[[2-(acetylsulfanyl)ethyl]carbamoyl]ethyl)carbamoyl]-2,2-dimethylpropyl acetate], for which, in data set [4] (setting [14]), the “% decrease in sTNFα” value was no less than 10% and the “% increase in B-cell Proliferation” value is reported as no less than 10%. In addition, in data set [5] (setting [17]), the inhibition at 10 µM is no less than 10%.

Turning to `CC(=O)OCC(C)(C)[C@@H](O)C(=O)NCCC(=O)NCCSC(=O)CC(=O)CCC(=O)O` [Compound 140, 6-[(2-[3-[(2R)-4-(acetyloxy)-2-hydroxy-3,3-dimethylbutanamido]propanamido]ethyl)sulfanyl]-4,6-dioxohexanoic acid], in data set [1] (setting [7]), the activation at 50 µM was no less than 10%.

In the case of `CC(C)(CO)[C@@H](O)C(=O)NCCC(=O)NCCSC(=O)CC(=O)CCC(=O)O` [Compound 2, 6-[(2-[3-[(2R)-2,4-dihydroxy-3,3-dimethylbutanamido]propanamido]ethyl)sulfanyl]-4,6-dioxohexanoic acid], the activation at 50 µM in data set [1] (setting [8]) is no less than 10%.

For `CC(C)=CC(=O)SCCNC(=O)CCNC(=O)[C@H](O)C(C)(C)CO` [Compound 37, S-2-{3-[(R)-2,4-dihydroxy-3,3-dimethylbutyrylamino]propionylamino}ethyl 3-methyl-2-butenethioate], in data set [2] (10 uM), the “% decrease in IL-10 Secretion” value is given as no less than 30%. The inhibition at 10 µM in data set [2] (setting [9]) is no less than 30%. Besides, the inhibition at 50 µM in data set [2] (Homo sapiens, Macrophage, 50 uM, read-out: % decrease in Macrophage IL-6 Secretion) was no less than 30%. Further, in data set [3] (setting [10]), the activation at 10 µM was no less than 10%.

Values taken from patent US20230107216A1, “PANTETHEINE DERIVATIVES AND USES THEREOF” (Comet Therapeutics, Inc., priority 2018, published 2023).
